Key:
intestinal permeability = assay: intestinal tolerability (51Cr-EDTA intestinal permeability); format: in vivo; settings: rat; 30 mg/kg p.o.; 51Cr-EDTA urinary excretion over 24 h
Description: Intestinal tolerability can be determined by measuring the effect on intestinal permeability. Lack of increase in permeability is indicative of intestinal tolerability. The method used is a modification of a procedure by Davies, et al., Pharm. Res. 1994; 11:1652–1656 and is based on the fact that excretion of orally administered ^51Cr-EDTA, a marker of small intestinal permeability, is increased by NSAIDs. Groups of rats (≧12/group) are administered a single, oral dose of test compound or vehicle by gastric intubation. Immediately following compound dose, each rat is administered ^51Cr-EDTA (5 μCi/rat) by gastric intubation. The rats are placed in individual metabolic cages and given food and water ad libitum. Urine is collected over a 24 hour period. Twenty-four hours after administration of ^51Cr-EDTA the rats are sacrificed. To quantify compound effect on intestinal permeability, the excreted ^51Cr-EDTA measured in the urine of compound treated rats is compared to the excreted ^51Cr-EDTA measured in the urine of vehicle treated rats. Relative permeability is determined by calculating the activity present in each urine sample as a percent of the administered dose after correcting for background radiation.

[1] = test system: pain threshold in yeast-inflamed paw; assay: Randall-Selitto paw pressure assay; format: in vivo, rat; settings: male Wistar rats; 10 mg/kg orally; 1 h after dosing
Description: The analgesic activity of the compounds of the invention is determined using the well-known Randall-Selitto assay.
The Randall-Selitto paw pressure assay measures antinociception (analgesic activity) in inflamed tissue by comparing the pressure threshold in the inflamed paw of the rat after oral administration of test drug with that in the inflamed paw of rats administered corn starch vehicle orally.
Groups of 10 male Wistar rats weighing 40–50 gms are fasted overnight prior to testing. Hyperalgesia is induced by the injection of 0.1 ml of a 20% suspension of Brewer's yeast with a 26 gauge needle into the subplantar region of the right hindpaw. The left paw is not injected and is used as the control paw for determination of hyperalgesia. Vehicle (Fortified corn starch suspension 3%) at 10 ml/kg, reference compound (diclofenac is run in every experiment at the same dose as test compounds) and test compounds at different doses suspended in vehicle at 10 ml/kg are administered orally 2 hours after the yeast injection. The threshold for paw withdrawal is quantified with a Basile Analgesy-meter 1 hour after oral administration of test compounds. The nociceptive threshold is defined as the force in grams at which the rat withdraws its foot or vocalizes. Either vocalization or foot withdrawal is recorded as a response.
The data are analyzed by comparing the mean pain threshold of the corn starch vehicle-treated group for the inflamed and non-inflamed paws to that of individual drug-treated rats. Individual rats in the drug-treated groups and positive control (diclofenac) group are called reactors if the individual pain threshold in each paw exceeds the control group mean threshold by two standard deviations of that mean. The mean pain thresholds of the inflamed paw in the control group are compared to the individual pain thresholds of the inflamed paw in the test drug group. The non-inflamed control mean pressure threshold is compared to the non-inflamed individual pressure thresholds in the test groups. Results are expressed as number of reactors in each test group (n=10) for inflamed and non-inflamed paws. Percentages are calculated by dividing number of reactors by total number of rats used for a compound.

gross gastric ulceration = assay: gastric tolerability assay; format: in vivo; settings: rat; 100 mg/kg p.o.; four hours after administration
Description: The gastric tolerability assay is used to assess gross ulceration in the rat, measured four hours after oral administration of the test compound. The test is carried out as follows: Rats are fasted overnight, administered compound in fortified cornstarch vehicle by gavage, and sacrificed by carbon dioxide inhalation four hours later. The stomachs are removed and gross gastric lesions counted and measured to give the total lesion length per rat. Each experiment contains the following groups (5–6 rats per group): vehicle control, test compounds, and diclofenac as a reference compound. Data are calculated as the mean number of ulcers in a group, the mean length of ulcers (mm) in the group and as the ulcer index (UI). UI=mean length of ulcers in a group×ulcer incidence where ulcer incidence is the fraction of animals in the group with lesions (100% incidence is 1).

melting point [°C] | Compound | also measured
125 to 126 | Cc1ccc(Nc2c(Cl)cccc2Cl)c(CC(=O)OCC(=O)O)c1 [Example 6(h), carboxymethyl 5-methyl-2-(2′,6′-dichloroanilino)phenylacetate] | 
151 to 153 | CCc1ccc(Nc2c(F)c(F)cc(F)c2F)c(CC(=O)OCC(=O)O)c1 [6(a), carboxymethyl 5-ethyl-2-(2′,3′,5′,6′-tetrafluoroanilino)phenylacetate] | effect on intestinal permeability (intestinal permeability): no effect or only a minimal effect; pain threshold in the inflamed paw [1]: increase the pain threshold; pain threshold in the non-inflamed paw [1]: no threshold elevation; gastric ulcerogenic effect (gross gastric ulceration): essentially free of any gastric ulcerogenic effect
106 to 108 | CCc1ccc(Nc2c(F)cccc2Cl)c(CC(=O)OCC(=O)O)c1 [Example 6(f), carboxymethyl 5-ethyl-2-(2′-chloro-6′-fluoroanilino)phenylacetate] | 
133 to 136 | CCc1ccc(Nc2c(Cl)cccc2Cl)c(CC(=O)O)c1 [Example 3(c), 5-ethyl-2-(2′,6′-dichloroanilino)phenylacetic acid] | 
125 to 126 | CCc1ccc(Nc2c(C)cccc2Cl)c(CC(=O)O)c1 [Example 2(b), 5-ethyl-2-(2′-chloro-6′-methylanilino)phenylacetic acid] | 
147 to 148 | CCc1ccc(Nc2c(F)cccc2Cl)c(CC(=O)O)c1 [Example 2(a), 5-ethyl-2-(2′-fluoro-6′-chloroanilino)phenylacetic acid] | 
169 to 171 | CCc1ccc(Nc2c(F)cc(Cl)cc2Cl)c(CC(=O)O)c1 [Example 2(f), 5-ethyl-2-(2′,4′-dichloro-6′-fluoroanilino)phenylacetic acid] | 
154 to 156 | Cc1ccc(Nc2c(C)cc(F)cc2Cl)c(CC(=O)O)c1 [Example 1(i), 5-methyl-2-(2′-chloro-4′-fluoro-6′-methylanilino)phenylacetic acid] | 
148 to 150 | Cc1ccc(Nc2c(F)cc(Cl)cc2Cl)c(CC(=O)OCC(=O)O)c1 [Example 6(g), carboxymethyl 5-methyl-2-(2′-fluoro-4′,6′-dichloroanilino)phenylacetate] | 
178 to 180 | Cc1ccc(Nc2c(F)cc(Cl)cc2Cl)c(CC(=O)O)c1 [Example 1(h), 5-methyl-2-(2′-fluoro-4′,6′-dichloroanilino)phenylacetic acid] | 
96 to 98 | Cc1ccc(Nc2c(F)cccc2Cl)c(CC(=O)OCC(=O)O)c1 [Example 6(i), carboxymethyl 5-methyl-2-(2′-chloro-6′-fluoroanilino)phenylacetate] | 
160 to 162 | CCc1ccc(Nc2c(F)cc(F)cc2Cl)c(CC(=O)O)c1 [Example 2(e), 5-ethyl-2-(2′-chloro-4′,6′-difluoroanilino)phenylacetic acid] | 
124 to 126 | CCc1ccc(Nc2c(Cl)cccc2Cl)c(CC(=O)OCC(=O)O)c1 [Example 6(c), carboxymethyl 5-ethyl-2-(2′,6′-dichloroanilino)phenylacetate] | 
138 to 140 | Cc1ccc(Nc2c(C)cccc2Cl)c(CC(=O)O)c1 [Example 1(f), 5-methyl-2-(2′-chloro-6′-methylanilino)phenylacetic acid] | 
104 to 108 | CCc1ccc(Nc2c(F)c(F)cc(F)c2F)c(CC(=O)OC(C)(C)C(=O)O)c1 [Example 8, 1-carboxy-1-methylethyl 5-ethyl-2-(2′,3′,5′,6′-tetrafluoroanilino)phenylacetate] | 
168 to 170 | Cc1ccc(Nc2c(Cl)cccc2Cl)c(CC(=O)O)c1 [Example 1(c), 5-methyl-2-(2′,6′-dichloroanilino)phenylacetic acid] | 
131 to 132 | CCOc1c(F)c(F)c(Nc2ccc(CC)cc2CC(=O)O)c(F)c1F [Example 2(d), 5-ethyl-2-(2′,3′,5′,6′-tetrafluoro-4′-ethoxyanilino)phenylacetic acid] | 
179 to 182 | Cc1cc(Cl)c(Nc2ccc(C)cc2CC(=O)O)c(Cl)c1 [Example 1(e), 5-methyl-2-(2′,6′-dichloro-4′-methylanilino)phenylacetic acid] | 
132 to 134 | CCc1ccc(Nc2c(F)cc(Cl)cc2Cl)c(CC(=O)OCC(=O)O)c1 [Example 6(e), carboxymethyl 5-ethyl-2-(2′,4′-dichloro-6′-fluoroanilino)phenylacetate] | 
138 to 140 | CCc1ccc(Nc2c(F)ccc(F)c2F)c(CC(=O)O)c1 [Example 2(c), 5-ethyl-2-(2′,3′,6′-trifluoroanilino)phenylacetic acid] | 
153 to 156 | Cc1ccc(Nc2c(F)c(F)cc(F)c2F)c(CC(=O)O)c1 [Example 1(b), 5-methyl-2-(2′,3′,5′,6′-tetrafluoroanilino)phenylacetic acid] | 
155 to 156 | Cc1ccc(Nc2c(F)cccc2C(F)(F)F)c(CC(=O)O)c1 [Example 9(a), 5-methyl-2-(2′-fluoro-6′-trifluoromethylanilino)phenylacetic acid] | 
123 to 125 | CCc1ccc(Nc2c(C)cc(Cl)cc2Cl)c(CC(=O)OCC(=O)O)c1 [Example 6(b), carboxymethyl 5-ethyl-2-(2′,4′-dichloro-6′-methylanilino)phenylacetate] | 
180 to 182 | Cc1ccc(Nc2c(F)cc(O)cc2Cl)c(CC(=O)O)c1 [Example 1(j), 5-methyl-2-(2′-chloro-4′-hydroxy-6′-fluoroanilino)phenylacetic acid] | 
142 to 144 | CCc1ccc(Nc2c(F)cc(F)cc2Cl)c(CC(=O)OCC(=O)O)c1 [Example 6(d), carboxymethyl 5-ethyl-2-(2′,4′-difluoro-6′-chloroanilino)phenylacetate] | 
143 to 145 | CCc1ccc(Nc2c(C)cc(F)cc2F)c(CC(=O)O)c1 [Example 5(b), 5-ethyl-2-(2′,4′-difluoro-6′-methylanilino)phenylacetic acid] | 
180 to 183 | CCc1ccc(Nc2c(C)cc(Cl)cc2Cl)c(CC(=O)O)c1 [Example 3(b), 5-ethyl-2-(2′,4′-dichloro-6′-methylanilino)phenylacetic acid] | 
151 to 154 | CCc1ccc(Nc2c(C)cc(F)cc2Cl)c(CC(=O)O)c1 [Example 5(c), 5-ethyl-2-(2′-chloro-4′-fluoro-6′-methylanilino)phenylacetic acid] | 

— patent publication US7115662B2, “Certain 5-alkyl-2-arylaminophenylacetic acids and derivatives” (Novartis AG, priority 1997, dated 2006)
